Where a name gives a salt, the structure may show the parent alone. Read-outs that look alike come from different tables or passages of the source.

The term IC50 denotes the concentration that inhibits the measured activity by half.

In assay [1] the test system is NIH 3T3 cells (the normal tissue cell line). The assay is described as follows: Inhibition of cell proliferation, xCelligence cell index. In kind it is cell-based. As to conditions: Mus musculus, NIH3T3. The text has this: (§1) The biological activity of compounds disclosed herein was monitored and profiled using the Real-Time Cell Electronic Sensing (RT-CES®) system from ACEA Biosciences, Inc. The RT-CES system utilizes cell-substrate impedance technology to monitor cellular behavior inside tissue culture wells in a microtiter plate format. The technology features in the integration of molecular and cell biology with microelectronics and is based on the electronic detection of biological assay process. […]
(§2) For measurement of cell-substrate or cell-electrode impedance using RT-CES technology, microelectrodes having appropriate geometries are fabricated onto the bottom surfaces of microtiter plate or similar device, facing into the wells. […] When there are changes to the biological status of the cells analogue electronic readout signals are measured automatically and in real time, and are converted to digital signals for processing and for analysis. In a RT-CES system, a cell index (arbitrary representation of change in impedance) is automatically derived and provided based on measured electrode impedance values. […]
(§3) To quantify cell status based on the measured cell-electrode impedance, a parameter termed Cell Index is derived. Cell Index is a quantitative measure of the status of the cells in an electrode-containing well. […]

The subject of assay [2] is HepG2 cells (human liver cancer cell line). Described as above. In kind it is cell-based. As to conditions: 72 hr post compound treatment, read-out: calculated IC50.
Description: as §1, §2, §3

In assay [3] the test system is MCF7 cells (human breast cancer cell line). The assay is described as above. In kind it is cell-based. As to conditions: 72 hr post compound treatment, read-out: calculated IC50.
Description: as §1, §2, §3

For assay [4], the system named is MDA-MB-231 cells (human breast cancer cell line). The description is as above. The class given is cell-based. To be noted: 72 hr post compound treatment, read-out: calculated IC50.
Description: as §1, §2, §3

The subject of assay [5] is tubulin (vinblastine-binding site). Nature of the assay: Spin column assay with [^3H]vinblastine. As to conditions: tubulin with [^3H]vinblastine and unlabeled competitor, 37° C. 1 h. As to the method:
Spin column assay. […] The reaction mixtures were incubated at 37° C. for 1 h. The samples were loaded onto Illustra™ MicroSpin™ G-50 columns (GE Healthcare) previously equilibrated with the buffer solution. The columns were placed into 1.5-ml tubes and spun at 750 g for 2 min at room temperature, and radioactivity in the flow-through was analyzed by a scintillation counter.

Regarding `CCc1ccc(Nc2nc(-c3c(C)nc4sccn34)cs2)cc1` [COMPOUND O, 2-(4-ethylphenyl)amino-4-(6-methylimidazo[2,1-b]thiazol-5-yl)-thiazole monohydrobromide], the IC50 was 6000 nM in assay [1] (NIH 3T3, 72 hr post compound treatment, read-out: calculated IC50); 6000 nM in assay [1] (NIH-3T3, read-out: IC50); 25.9 nM in assay [2]; 74.4 nM in assay [3]; 32.4 nM in assay [4]. In addition, the “amount of [^3H]vinblastine in the flow-through” value in assay [5] is “neither colchicine nor COMPOUND O affected the amount of [^3H]vinblastine in the flow-through”.
